{"source": "patent US20110105554A1", "about": "“MEANS FOR TREATING MYOSIN-RELATED DISEASES” (KINARIS BIOMEDICALS GMBH, priority 2007, published 2011)", "key": {"[1]": {"test_system": "Saccharomyces cerevisiae cells", "assay": "Myo2p-dependent changes in mitochondrial morphology in yeast", "assay_type": "cell-based", "procedure": "FIG. 13: Myo2p-dependent changes in mitochondrial morphology. In yeast cells, the class-5 myosins Myo2p is responsible for the distribution of mitochondria between mother and daughter cells during cytokinesis and has be shown to affect mitochondrial morphology during […]. […] Insets show the same cells viewed under transmitted light. Bar: 5 μm\nTo test the specific inhibition of myosin-5 function in a cellular context, we exposed Saccharomyces cerevisiae cells to 100 to 500 nM PBP. S. cerevisiae has five myosin heavy chain genes: a myosin-2, two class-1 myosins, and the class-5 myosins Myo2p and Myo4p. Myo2p plays a crucial role in polarized distribution of mitochondria and is required for retention of newly inherited mitochondria in yeast cells during cell division^4-6. Myo4p is required for mRNA transport and facilitates movement of ER tubules into the growing bud. Myo4p null mutants are viable and display no detectable phenotype. Deletion of the myo3 and myo5 genes, encoding class-1 myosins, leads to severe defects in growth and actin cytoskeletal organization. Severe growth defects are also observed upon depletion of the class-2 myosin Myo1p. Therefore, we expected that selective inhibition of class-5 myosins will produce readily detectable changes in the morphology of mitochondria without affecting cell growth and cytokinesis. To facilitate the visual inspection of mitochondrial morphology, we transfected the cells used for these experiments with an expression vector for the production of mitochondria-targeted GFP^7. A yeast mutant strain with myo2 expression under the control of the TetO7 promoter was used as control^8. Repression of the TetO7 promoter by the addition of 10 μg/ml deoxycycline to the culture medium of this strain led to an apparent fragmentation of mitochondria.\nMyo2p-dependent changes in mitochondrial morphology. […] Yeast strains producing mitochondria-targeted GFP were supplied by Dr. B. Westermann^7, allowing us to study the morphology of yeast mitochondria in a fluorescence microscope. […] Cells were analyzed at the end of the logarithmic growth phase. […]"}, "[2]": {"target": "myosin-1E (Dictyostelium discoideum, UniProt Q03479)", "sequence (Q03479 whole entry, canonical isoform)": "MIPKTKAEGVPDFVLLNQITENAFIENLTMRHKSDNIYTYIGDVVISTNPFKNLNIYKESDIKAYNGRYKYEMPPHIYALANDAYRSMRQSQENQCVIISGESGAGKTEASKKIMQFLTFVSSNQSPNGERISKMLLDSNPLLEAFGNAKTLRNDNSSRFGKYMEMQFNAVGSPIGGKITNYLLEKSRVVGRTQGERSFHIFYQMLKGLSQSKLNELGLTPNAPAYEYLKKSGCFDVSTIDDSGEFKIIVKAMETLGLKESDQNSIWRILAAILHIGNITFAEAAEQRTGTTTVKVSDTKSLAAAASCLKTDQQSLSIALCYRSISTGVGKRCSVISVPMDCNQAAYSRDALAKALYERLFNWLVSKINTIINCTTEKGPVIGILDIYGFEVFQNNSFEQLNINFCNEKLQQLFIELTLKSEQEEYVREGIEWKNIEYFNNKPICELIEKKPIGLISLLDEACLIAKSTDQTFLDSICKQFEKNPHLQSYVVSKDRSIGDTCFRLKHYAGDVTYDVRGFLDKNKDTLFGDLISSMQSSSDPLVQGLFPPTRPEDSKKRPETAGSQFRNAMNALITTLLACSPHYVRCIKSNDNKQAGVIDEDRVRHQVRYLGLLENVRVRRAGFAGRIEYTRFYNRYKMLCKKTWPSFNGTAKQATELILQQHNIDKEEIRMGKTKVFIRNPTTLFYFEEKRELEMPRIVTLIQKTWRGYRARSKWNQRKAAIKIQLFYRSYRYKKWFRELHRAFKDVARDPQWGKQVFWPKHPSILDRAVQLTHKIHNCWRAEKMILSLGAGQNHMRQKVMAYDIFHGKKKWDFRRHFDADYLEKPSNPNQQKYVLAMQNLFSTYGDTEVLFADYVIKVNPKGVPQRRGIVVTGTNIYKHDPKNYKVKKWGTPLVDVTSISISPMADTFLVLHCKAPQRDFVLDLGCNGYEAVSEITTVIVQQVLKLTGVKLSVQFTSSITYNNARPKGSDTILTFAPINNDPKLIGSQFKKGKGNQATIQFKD", "assay": "In vitro motility assay (actin filament sliding), myosin-1E", "assay_type": "biochemical", "conditions": "data not shown", "procedure": "The extent and order of isoform-specific differences in the potency of the inhibitor were additionally confirmed by the results of in vitro motility assays). […] (FIG. 11a) Myosin-5a moves actin filaments with an average velocity of 0.6 μm/s±0.05 (dark bars); addition of 10 μM PBP into the same flow cell lead to a 46-fold reduction of the average sliding velocity to 0.013 μm/s±0.002 (light grey bars).\nDirect functional Assays. Actin-sliding motility was performed at 25° C. using an Olympus IX81 inverted fluorescence microscope. Experimental flow cells were constructed using bovine serum albumin (0.5 mg/ml in assay buffer)-coated glass slides and nitrocellulose-coated coverslips. Myosins were actin affinity-purified immediately before use, to remove rigor heads^20. Sliding movement was started by adding assay buffer containing 4 mM ATP, 10 mM DTT, 0.5 mg/ml bovine serum albumin, anti-fade solution, and 0.5% methylcellulose to the flow cell. Average sliding velocity was determined from the Gaussian distribution of automatically tracked actin filaments using DiaTrack 3.0 and Origin 7.0."}, "[3]": {"target": "chicken myosin-5a (Gallus gallus, UniProt Q02440)", "sequence (Q02440 1-764)": "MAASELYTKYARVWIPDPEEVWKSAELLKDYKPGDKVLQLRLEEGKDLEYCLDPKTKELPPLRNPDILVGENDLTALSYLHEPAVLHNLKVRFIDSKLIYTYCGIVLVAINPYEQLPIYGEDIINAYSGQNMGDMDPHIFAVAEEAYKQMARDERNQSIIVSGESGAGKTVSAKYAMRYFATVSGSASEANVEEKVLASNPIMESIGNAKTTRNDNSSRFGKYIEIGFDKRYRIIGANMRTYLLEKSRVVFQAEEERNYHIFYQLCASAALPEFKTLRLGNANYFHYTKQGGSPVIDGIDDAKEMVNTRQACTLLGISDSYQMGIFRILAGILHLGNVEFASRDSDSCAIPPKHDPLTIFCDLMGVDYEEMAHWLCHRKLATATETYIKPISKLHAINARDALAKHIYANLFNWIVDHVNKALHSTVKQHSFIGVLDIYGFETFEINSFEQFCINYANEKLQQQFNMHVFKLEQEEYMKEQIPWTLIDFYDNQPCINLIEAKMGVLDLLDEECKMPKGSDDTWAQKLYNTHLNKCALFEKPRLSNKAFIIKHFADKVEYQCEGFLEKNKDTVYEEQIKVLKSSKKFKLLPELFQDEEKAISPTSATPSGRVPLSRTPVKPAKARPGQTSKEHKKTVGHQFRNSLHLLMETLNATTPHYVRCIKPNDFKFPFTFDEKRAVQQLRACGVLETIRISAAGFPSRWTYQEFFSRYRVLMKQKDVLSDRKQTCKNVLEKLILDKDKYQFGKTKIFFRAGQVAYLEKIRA", "assay": "Actin-activated ATPase activity (NADH-coupled assay), chicken myosin-5a", "assay_type": "biochemical", "procedure": "(§1) Based on the structure of the myosin-2 motor domain with bound PBP, we performed molecular modeling studies to elucidate the specificity of PBP-binding to myosins from different classes. […] To test the predictions from the modeling studies, we determined actin-activated ATPase activities in the presence of 0 to 150 μM PBP with rabbit skeletal myosin-2 heavy meromyosin (HMM), myosin-5a isolated from chicken brain, and recombinant Dictyostelium myosin class-1, 2 and 5 motor-domain constructs (FIG. 9a). […] The concentrations of PBP required for half-maximal inhibition of the different myosin motors was calculated from fitting the data to hyperbolae. […] To determine the extend to which PBP impairs the coupling between the actin- and nucleotide-binding sites of myosin, we measured the ATP turn-over rates of Dictyostelium myosin-2 and myosin-5b motor domain constructs over the range from 0 to 50 μM F-actin in the absence and presence of 25 μM PBP.\n(§2) Protein preparation. Rabbit fast skeletal muscle heavy meromyosin (HMM) was prepared as described by Kron and Spudich^9. […]\n(§3) Steady-state kinetics. Basal and actin-activated Mg^2+-ATPase activities were measured with the NADH-coupled assay^19 in a buffer containing 25 mM HEPES, 25 mM KCl, and 4 mM MgCl2, 0.5 mM DTT at pH 7.0 in the presence of 1 mM ATP at 25° C. […]"}, "[4]": {"target": "rabbit skeletal myosin-2 heavy meromyosin (HMM)", "assay": "Actin-activated ATPase activity, rabbit skeletal myosin-2 HMM", "assay_type": "biochemical", "conditions": "0 to 150 μM PBP, hyperbolic fit; read-out: Ki, half-maximal inhibition of actin-activated ATPase activity", "procedure": "as §1, §2, §3"}, "[5]": {"target": "T1, Dictyostelium myosin-2 (Dictyostelium discoideum, UniProt P08799, C312Y/S249N)", "T1 construct": "comprising amino acids 1-698, 1-765, and 1-839 respectively; made in house", "T1 sequence (P08799 1-765 S249N/C312Y)": "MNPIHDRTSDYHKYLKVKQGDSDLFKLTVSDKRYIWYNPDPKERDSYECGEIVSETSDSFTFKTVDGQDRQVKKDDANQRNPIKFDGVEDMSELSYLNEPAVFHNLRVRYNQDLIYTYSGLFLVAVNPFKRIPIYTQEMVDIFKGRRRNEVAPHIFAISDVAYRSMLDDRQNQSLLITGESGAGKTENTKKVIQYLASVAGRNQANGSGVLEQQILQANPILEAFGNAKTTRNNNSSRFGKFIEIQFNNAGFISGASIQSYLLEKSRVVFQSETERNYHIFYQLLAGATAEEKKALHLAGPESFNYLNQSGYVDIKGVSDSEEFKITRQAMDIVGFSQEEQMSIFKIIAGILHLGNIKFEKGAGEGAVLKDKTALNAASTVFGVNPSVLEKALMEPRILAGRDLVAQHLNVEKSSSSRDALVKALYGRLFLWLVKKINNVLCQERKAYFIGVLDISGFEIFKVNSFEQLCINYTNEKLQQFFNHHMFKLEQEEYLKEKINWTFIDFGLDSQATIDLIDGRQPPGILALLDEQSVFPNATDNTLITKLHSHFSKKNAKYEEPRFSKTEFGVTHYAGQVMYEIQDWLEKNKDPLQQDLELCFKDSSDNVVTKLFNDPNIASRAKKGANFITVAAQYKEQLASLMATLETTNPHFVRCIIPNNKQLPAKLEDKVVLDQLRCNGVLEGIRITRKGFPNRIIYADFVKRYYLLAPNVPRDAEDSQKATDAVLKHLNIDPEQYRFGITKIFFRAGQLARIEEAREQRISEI", "assay": "Actin-activated ATPase activity (NADH-coupled assay), Dictyostelium myosin-2", "assay_type": "biochemical", "procedure": "as §1\nValues for the rate of maximum ATP turnover (kcat), the concentration of F-actin at which half-maximal activation is achieved (Kapp), and the apparent second order rate constant for actin binding (kcat/Kapp) were estimated from a fit of the data to a hyperbolic function. kcat/Kapp is a direct measure of the coupling efficiency between actin and nucleotide binding and can be determined from the initial slope at F-actin concentrations much smaller than Kapp. […] ATP turn-over rates of Dictyostelium myosin-2 (◯) and Dictyostelium myosin-5b (▪) at increasing F-actin concentrations in the absence (filled symbols) and presence (open symbols) of 25 μM pentabromopseudilin (FIG. 9b):\nProtein preparation. Rabbit fast skeletal muscle heavy meromyosin (HMM) was prepared as described by Kron and Spudich^9. Motor domain constructs of myosin-1E, myosin-2, and myosin-5b from Dictyostelium discoideum comprising amino acids 1-698, 1-765, and 1-839 respectively, were prepared as described previouslyl^10-12. Myosin-5a heavy meromyosin from chicken brain was provided by Dr. T. Scholz (Hannover Medical School, Germany) and F-actin was prepared as described by Lehrer and Kerwar^13.\nSteady-state kinetics. Basal and actin-activated Mg^2+-ATPase activities were measured with the NADH-coupled assay^19 in a buffer containing 25 mM HEPES, 25 mM KCl, and 4 mM MgCl2, 0.5 mM DTT at pH 7.0 in the presence of 1 mM ATP at 25° C. PBP was added to the reaction mixture in the absence of nucleotide and incubated for 20 minutes before the reaction was started by the addition of ATP. NADH oxidation was followed using the change in absorption at 340 nm in a Beckman DU-800 spectrophotometer."}}, "note": "pKi: −log10 of the molar value.", "data": [{"smiles": "Oc1c(Br)cc(Br)cc1-c1[nH]c(Br)c(Br)c1Br", "note": "[KIN-43]", "values": [{"measurement": "mitochondrial morphology", "setting": "[1]; 100 nM PBP", "result": "closely resembled that of untreated wild-type cells"}, {"measurement": "mitochondrial morphology", "setting": "[1]; 500 nM PBP, 12 hours, wild-type cells, listed as PBP", "result": "phenotype of Myo2p-depleted cells can be phenocopied"}, {"measurement": "growth kinetics of yeast cells", "setting": "[1]; 500 nM, listed as PDP", "result": "almost the same growth kinetics as wild type control cultures"}, {"measurement": "inhibition of actin filament sliding", "setting": "[2]", "result": "No significant inhibition"}, {"measurement": "ATPase activity at 30 μM F-actin in the presence of inhibitor", "setting": "[3]", "result": 0.34, "unit": "s⁻¹"}, {"measurement": "pKi", "setting": "[3]", "result": 5.92}, {"measurement": "pKi", "setting": "[4]", "result": 4.64}, {"measurement": "pKi", "setting": "[5]", "result": 4.62}, {"measurement": "fold reduction in coupling (kcat/Kapp)", "setting": "[5]; 25 μM PBP", "result": 3.7, "unit": "fold"}, {"measurement": "kcat/Kapp (apparent second order rate constant for actin binding)", "setting": "[5]; 25 μM PBP, 0 to 50 μM F-actin, 0.037 without", "result": 10000, "unit": "M⁻¹ s⁻¹"}, {"measurement": "ATPase activity at 30 μM F-actin in the presence of inhibitor", "setting": "[5]; >100 μM PBP, 0.7 s^−1 without", "result": 0.02, "unit": "s⁻¹"}]}]}
